Data published in ChEMBL document CHEMBL5226336, “Design, Synthesis, and Evaluation of [18F]T-914 as a Novel Positron-Emission Tomography Tracer for Lysine-Specific Demethylase 1” (J Med Chem, 2021).
The source made the active and inactive calls. The calls are words filed in the database; no cut-off is given here.

Legend:
[1] = molecular target: P-glycoprotein (ABCB1, MDR1) (Homo sapiens, UniProt P08183); test: Substrate activity at p-glycoprotein (unknown origin) expressed in pig LLC-PK1 cells coexpressing MDR1 assessed as efflux ratio at apparent permeability across basolateral to apical side to apparent permeability across apical to basolateral side at 1 uM measured after 1 hr by LC-MS/MS analysis; type: ADME, cell-based
[2] = Drug metabolism in Sprague-Dawley rat brain assessed as 6-fluoronicotinic acid formation in cortex at 10 mg/kg, iv measured after 4 hrs by HPLC-UV and LC/MS analysis; type: ADME, organism-based; details: in vivo
[3] = Drug metabolism in Sprague-Dawley rat brain assessed as 6-fluoronicotinic acid level in cortex at 10 mg/kg, iv measured after 1 hr by HPLC-UV and LC/MS analysis; type: ADME, organism-based; details: in vivo
LSD1/CoREST complex = LSD1/CoREST complex (Homo sapiens, UniProt O60341); test: Inhibition of human recombinant LSD1/CoREST using ART(mK)QTARKSTGGKAPRKQLAGGK-biotin as substrate incubated for 15 mins; type: protein-complex assay
[4] = Drug metabolism in Sprague-Dawley rat brain assessed as N-(6-fluoropyridin-3-yl)-N-methylacetamide level in cortex at 1 mg/kg, iv measured after 1 hr by HPLC-UV and LC/MS analysis; type: ADME, organism-based; details: in vivo
[5] = Drug uptake in Sprague-Dawley rat brain at 1 mg/kg, iv measured after 4 hrs by LC-MS analysis; type: ADME, organism-based; details: in vivo, BLD = below limit of detection
[6] = Drug metabolism in Sprague-Dawley rat brain assessed as N-(6-fluoropyridin-3-yl)-N-methylacetamide level in cortex at 1 mg/kg, iv measured after 4 hrs by HPLC-UV and LC/MS analysis; type: ADME, organism-based; details: in vivo
[7] = Drug uptake in Sprague-Dawley rat brain at 1 mg/kg, iv measured after 1 to 24 hrs by LC-MS analysis; type: ADME, organism-based; details: in vivo, time 1-24 hrs
[8] = Drug metabolism in Sprague-Dawley rat brain assessed as N-(6-fluoro-4-methylpyridin-3-yl)acetamide level in cortex at 10 mg/kg, iv measured after 4 hrs by HPLC-UV and LC/MS analysis; type: ADME, organism-based; details: in vivo
[9] = Drug metabolism in Sprague-Dawley rat brain assessed as N-(6-fluoro-4-methylpyridin-3-yl)acetamide level in cortex at 10 mg/kg, iv measured after 1 hr by HPLC-UV and LC/MS analysis; type: ADME, organism-based; details: in vivo
[10] = Retention time of the compound by HPLC method; type: physicochemical
[11] = Drug uptake in rhesus monkey pons administered intravenously and measured after 90 to 180 mins by PET/MRI imaging analysis; type: ADME, tissue-based, Macaca mulatta; details: in vivo, iv, time 90-180 min
[12] = Drug uptake in rhesus monkey cerebellum administered intravenously pretreated with N-(4-[(1S,2R)/(1R,2S)-2-[(Cyclopropylmethyl)amino)cyclopropyl)phenyl)-6-fluoro-4-methylpyridine-3-carboxamide followed by compound addition and measured after 90 to 180 mins by PET/MRI imaging analysis; type: ADME, Macaca mulatta; details: in vivo, iv, time 90-180 min
[13] = Drug uptake in rhesus monkey anterior cingulate cortex administered intravenously and measured after 90 to 180 mins by PET/MRI imaging analysis; type: ADME, tissue-based, Macaca mulatta; details: in vivo, iv, time 90-180 min
[14] = Drug uptake in rhesus monkey frontal lobe administered intravenously and measured after 90 to 180 mins by PET/MRI imaging analysis; type: ADME, tissue-based, Macaca mulatta; details: in vivo, iv, time 90-180 min
[15] = Drug uptake in rhesus monkey cerebellum administered intravenously and measured after 90 to 180 mins by PET/MRI imaging analysis; type: ADME, tissue-based, Macaca mulatta; details: in vivo, iv, time 90-180 min
[16] = Drug uptake in rhesus monkey caudate nucleus administered intravenously and measured after 90 to 180 mins by PET/MRI imaging analysis; type: ADME, tissue-based, Macaca mulatta; details: in vivo, iv, time 90-180 min
[17] = molecular target: T1, Amine oxidase [flavin-containing] B (Homo sapiens, UniProt P27338); test: Inhibition of MAO-B (unknown origin) incubated for 10 mins followed by MAO substrate addition and measured after 60 mins by luciferin-based luminescence assay
T1 sequence (P27338 whole entry): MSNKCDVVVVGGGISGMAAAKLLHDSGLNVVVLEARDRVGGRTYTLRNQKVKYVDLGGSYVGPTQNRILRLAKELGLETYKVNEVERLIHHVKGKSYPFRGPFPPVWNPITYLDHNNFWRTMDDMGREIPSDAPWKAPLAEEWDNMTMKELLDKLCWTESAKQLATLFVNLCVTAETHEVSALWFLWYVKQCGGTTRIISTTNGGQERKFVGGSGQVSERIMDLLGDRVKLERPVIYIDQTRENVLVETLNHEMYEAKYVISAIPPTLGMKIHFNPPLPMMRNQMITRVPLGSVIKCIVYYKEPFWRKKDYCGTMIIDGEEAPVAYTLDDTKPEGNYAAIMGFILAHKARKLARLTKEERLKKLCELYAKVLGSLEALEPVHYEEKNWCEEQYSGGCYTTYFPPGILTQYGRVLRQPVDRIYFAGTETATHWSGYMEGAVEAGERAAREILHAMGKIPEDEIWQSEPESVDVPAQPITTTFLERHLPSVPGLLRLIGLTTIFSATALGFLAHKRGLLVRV

[18] = molecular target: Lysine-specific histone demethylase 1A (Homo sapiens) (UniProt O60341); test: Binding affinity to human recombinant LSD1 assessed as compound-FAD adduct formation at 1 mM incubated for 1 hr by LC-MS analysis
[19] = Drug metabolism in cryopreserved rat hepatocytes assessed as hydrolysis-mediated 6-fluoro-4-methylnicotinic acid formation measured for 6 hrs by HPLC-UV and LC/MS analysis; type: ADME, cell-based, Hepatocyte
[20] = Unbound drug concentration in Sprague-Dawley rat plasma assessed as free fraction ratio; type: ADME, cell-free
[21] = Drug metabolism in cryopreserved human hepatocytes assessed as N-acetylglucosamine conjugation-mediated metabolite formation measured for 6 hrs by HPLC-UV and LC/MS analysis; type: ADME, cell-based, Hepatocyte
[22] = Drug metabolism in Sprague-Dawley rat brain assessed as fluorine-containing metabolite level in cortex at 10 mg/kg, iv measured after 1 to 4 hrs by HPLC-UV and LC/MS analysis; type: ADME, organism-based; details: in vivo, time 1-4 hrs
[23] = Drug concentration in cynomolgus monkey plasma at 0.1 mg/kg, iv measured after 5 mins by LC-MS/MS analysis; type: ADME, organism-based, Macaca fascicularis
[24] = Unbound drug concentration in cynomolgus monkey plasma assessed as free fraction ratio; type: ADME, cell-free, Macaca fascicularis
[25] = AUC(0 to 6 hrs) in cynomolgus monkey at 0.1 mg/kg, iv by LC-MS/MS analysis; type: ADME, organism-based, Macaca fascicularis; parameters: dose 0.1 mg/kg, route iv; details: in vivo
[26] = Drug metabolism in cryopreserved monkey hepatocytes assessed as N-acetylglucosamine conjugation-mediated metabolite formation measured for 6 hrs by HPLC-UV and LC/MS analysis; type: ADME, cell-based, Macaca mulatta, Hepatocyte; details: rhesus monkey
[27] = Lipophilicity, logD of the compound at pH 7.4; type: physicochemical; details: buffer
[28] = molecular target: T2, Amine oxidase [flavin-containing] A (Homo sapiens, UniProt P21397); test: Inhibition of MAO-A (unknown origin) incubated for 10 mins followed by MAO substrate addition and measured after 60 mins by luciferin-based luminescence assay
T2 sequence (P21397 whole entry): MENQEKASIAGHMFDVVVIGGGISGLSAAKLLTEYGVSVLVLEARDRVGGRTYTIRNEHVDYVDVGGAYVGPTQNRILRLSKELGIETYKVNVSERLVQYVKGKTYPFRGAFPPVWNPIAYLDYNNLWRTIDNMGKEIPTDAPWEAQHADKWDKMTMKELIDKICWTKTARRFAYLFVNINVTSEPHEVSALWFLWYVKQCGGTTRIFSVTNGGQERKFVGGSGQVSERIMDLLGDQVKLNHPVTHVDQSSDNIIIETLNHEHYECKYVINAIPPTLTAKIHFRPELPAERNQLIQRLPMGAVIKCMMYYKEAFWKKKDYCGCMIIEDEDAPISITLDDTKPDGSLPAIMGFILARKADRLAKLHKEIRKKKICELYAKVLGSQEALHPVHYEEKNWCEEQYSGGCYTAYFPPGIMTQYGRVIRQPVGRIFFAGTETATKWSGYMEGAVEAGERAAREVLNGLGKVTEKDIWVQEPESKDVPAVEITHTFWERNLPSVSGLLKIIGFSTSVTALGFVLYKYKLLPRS

[29] = Unbound drug concentration in Sprague-Dawley rat brain homogenate assessed as free fraction ratio; type: ADME, tissue-based
[30] = Drug metabolism in cryopreserved rat hepatocytes assessed as N-acetylglucosamine conjugation-mediated metabolite formation measured for 6 hrs by HPLC-UV and LC/MS analysis; type: ADME, cell-based, Hepatocyte
[31] = Drug metabolism in cryopreserved monkey hepatocytes assessed as hydrolysis-mediated 6-fluoro-4-methylnicotinic acid formation measured for 6 hrs by HPLC-UV and LC/MS analysis; type: ADME, cell-based, Macaca mulatta, Hepatocyte; details: rhesus monkey
[32] = Volume of distribution at steady state in cynomolgus monkey at 0.1 mg/kg, iv by LC-MS/MS analysis; type: ADME, organism-based, Macaca fascicularis; details: in vivo, read-out: Vdss
[33] = Half life in cynomolgus monkey at 0.1 mg/kg, iv by LC-MS/MS analysis; type: ADME, organism-based, Macaca fascicularis; details: in vivo
[34] = Total clearance in cynomolgus monkey at 0.1 mg/kg, iv by LC-MS/MS analysis; type: ADME, organism-based, Macaca fascicularis; details: in vivo
[35] = Drug metabolism in cryopreserved human hepatocytes assessed as hydrolysis-mediated 6-fluoro-4-methylnicotinic acid formation measured for 6 hrs by HPLC-UV and LC/MS analysis; type: ADME, cell-based, Hepatocyte

Chain of P-glycoprotein (ABCB1, MDR1) (P08183 whole entry): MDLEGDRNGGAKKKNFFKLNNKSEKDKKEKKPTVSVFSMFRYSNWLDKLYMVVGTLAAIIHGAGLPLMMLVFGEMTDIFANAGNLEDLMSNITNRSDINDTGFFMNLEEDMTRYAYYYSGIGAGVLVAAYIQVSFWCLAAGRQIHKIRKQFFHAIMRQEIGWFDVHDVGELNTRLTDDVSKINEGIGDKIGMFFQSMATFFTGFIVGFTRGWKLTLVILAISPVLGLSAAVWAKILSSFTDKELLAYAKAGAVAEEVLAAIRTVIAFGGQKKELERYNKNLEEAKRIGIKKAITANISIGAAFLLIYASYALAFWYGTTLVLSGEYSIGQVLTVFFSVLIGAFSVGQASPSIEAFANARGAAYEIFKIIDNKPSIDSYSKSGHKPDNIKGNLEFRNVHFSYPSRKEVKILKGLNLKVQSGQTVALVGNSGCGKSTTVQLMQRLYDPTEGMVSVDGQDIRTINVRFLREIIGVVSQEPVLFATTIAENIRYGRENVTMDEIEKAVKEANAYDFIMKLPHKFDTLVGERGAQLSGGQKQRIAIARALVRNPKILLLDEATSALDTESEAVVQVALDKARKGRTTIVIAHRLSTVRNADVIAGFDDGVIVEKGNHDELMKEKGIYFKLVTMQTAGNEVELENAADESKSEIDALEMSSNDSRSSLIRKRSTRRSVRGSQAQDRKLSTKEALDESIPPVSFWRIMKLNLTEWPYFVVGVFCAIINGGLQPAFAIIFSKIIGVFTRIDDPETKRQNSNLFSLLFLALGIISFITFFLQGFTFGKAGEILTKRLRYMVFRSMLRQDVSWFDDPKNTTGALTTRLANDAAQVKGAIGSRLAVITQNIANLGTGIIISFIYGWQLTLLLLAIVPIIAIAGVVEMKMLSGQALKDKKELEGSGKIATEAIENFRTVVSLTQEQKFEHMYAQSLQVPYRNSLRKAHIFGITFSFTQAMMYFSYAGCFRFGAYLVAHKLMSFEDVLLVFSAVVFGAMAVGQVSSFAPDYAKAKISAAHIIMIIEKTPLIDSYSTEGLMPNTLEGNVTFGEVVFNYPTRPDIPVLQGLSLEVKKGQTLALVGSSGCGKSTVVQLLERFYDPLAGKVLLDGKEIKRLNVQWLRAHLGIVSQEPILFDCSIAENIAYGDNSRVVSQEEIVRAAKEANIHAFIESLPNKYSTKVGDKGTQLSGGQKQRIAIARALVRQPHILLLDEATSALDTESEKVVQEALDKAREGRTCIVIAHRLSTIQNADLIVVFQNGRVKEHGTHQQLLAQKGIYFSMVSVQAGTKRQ

## O=C(Nc1ccc([C@@H]2C[C@H]2NCC2CC2)cc1)c1ccc(F)nc1
[1]
  efflux ratio at 1 h, 1 µM: 0.8
[2]
  Drug metabolism: Metabolite_Notdetected
[3]
  Drug metabolism: 0.28 nmol/g
LSD1/CoREST complex
  IC50: 10 nM

## Cc1nc(F)ccc1N(C)C(=O)c1ccc([C@@H]2C[C@H]2NCC2CC2)cc1
[1]
  efflux ratio at 1 h, 1 µM: 1.3
LSD1/CoREST complex
  IC50: 5.4 nM

## O=C(c1ccc([C@@H]2C[C@H]2NCC2CC2)cc1)N1CC(F)C1
[1]
  efflux ratio at 1 h, 1 µM: 0.64
LSD1/CoREST complex
  IC50: 64 nM

## CN(C(=O)c1ccc([C@@H]2C[C@H]2NCC2CC2)cc1)c1ccc(F)nc1
[4]
  Drug metabolism: 0.87 nmol/g
[5]
  Drug uptake: Bld
[6]
  Drug metabolism: 1.16 nmol/g

## CN(C(=O)c1ccc(CCC(=O)O)cc1)c1ccc(F)nc1
[7]
  Drug uptake: Not Active

## Cc1cc(F)ncc1N(C)C(=O)c1ccc([C@@H]2C[C@H]2NCC2CC2)cc1
[1]
  efflux ratio at 1 h, 1 µM: 1.4
[8]
  Drug metabolism: 0.24 nmol/g
[9]
  Drug metabolism: 0.1 nmol/g
LSD1/CoREST complex
  IC50: 3.9 nM

## Cc1cc(F)ncc1C(=O)O
[10]
  Retention_time: 2.19 min

## O=C(c1ccc([C@@H]2C[C@H]2NCC2CC2)cc1)N1CCC(F)CC1
[1]
  efflux ratio at 1 h, 1 µM: 0.66
LSD1/CoREST complex
  IC50: 24 nM

## Cc1cc([18F])ncc1C(=O)Nc1ccc([C@@H]2C[C@H]2NCC2CC2)cc1
[11]
  Drug uptake: Active
[12]
  Drug uptake: Not Active
[13]
  Drug uptake: Active
[14]
  Drug uptake: Active
[15]
  Drug uptake: Active
[16]
  Drug uptake: Active

## Cc1cc(F)ncc1C(=O)Nc1ccc([C@@H]2C[C@H]2NCC2CC2)cc1
[17]
  IC50: 33000 nM
[18]
  Activity: Active
[1]
  efflux ratio at 1 h, 1 µM: 0.91
[19]
  Drug metabolism: Metabolite_Notdetected
[10]
  Retention_time: 11.85 min
[20]
  Ratio: 0.69
[21]
  Drug metabolism: Metabolite_Notdetected
[22]
  Drug metabolism: 0.21 nmol/g
[23]
  concentration at 5 min: 31.2 ng/mL
[24]
  Ratio: 0.67
[25]
  AUC(0-t): 51.6 ng·h/mL
[26]
  Drug metabolism: Metabolite_Detected
[27]
  logD: 1.62
[28]
  IC50: > 100000 nM
[29]
  Ratio: 0.277
[30]
  Drug metabolism: Metabolite_Notdetected
LSD1/CoREST complex
  IC50: 7.2 nM
[31]
  Drug metabolism: Metabolite_Notdetected
[32]
  Vd: 3.13 L/kg
[33]
  half-life: 1.75 h
[34]
  clearance: 32.5 mL/min/kg
[35]
  Drug metabolism: Metabolite_Notdetected

## CC(=O)N(C)c1ccc(F)nc1
[7]
  Drug uptake: Active
